Columns and labels:
[1] = tested on: Echinochloa crus-galli; experiment: Herbicidal activity against Echinochloa crus-galli (barnyard grass) assessed as inhibition of root length after 5 days at 25 degC; type: functional, organism-based; details: 120 h
[2] = tested on: Oryza sativa; experiment: Phytotoxicity against Oryza sativa (rice) assessed as inhibition of root length after 7 days at 25 degC; type: organism-based; details: 168 h
[3] = Phytotoxicity against Oryza sativa (rice) assessed as inhibition of root length at 64 uM after 7 days at 25 degC; type: organism-based; details: whole organism (rice plants, root growth)
[4] = tested on: Echinochloa crus-galli; experiment: Herbicidal activity against Echinochloa crus-galli (barnyard grass) assessed as inhibition of root length at 64 uM after 5 days at 25 degC; type: functional; details: 120 h

Row | Structure (SMILES) | IC50 [1] [µM] | IC50 [2] [µM] | inhibition at 168 h, 64 µM [3] [%] | inhibition at 64 µM [4] [%]
1 | O=C1COc2ccccc2N1O | 360 |  |  | 
2 | COc1ccc2c(c1)OCC(=O)N2O | 819 |  |  | 
3 | O=C1COc2c(Cl)cc(Cl)cc2N1O [6,8-diCl-D-DIBOA] | 281 | 3320 |  | 
4 | O=C1COc2ccc(C(F)(F)F)cc2N1O [6-CF3-D-DIBOA] | 160 | 264 |  | 
5 | O=C1COc2ccc(Cl)cc2N1O [6-Cl-D-DIBOA] | 8 | 3 |  | 
6 | O=C1COc2ccc(F)cc2N1O [6-F-D-DIBOA] | 2.8 | 9 |  | 
7 | COc1ccc2c(c1)N(O)C(=O)CO2 [6-MeO-D-DIBOA] | 159 |  |  | 
8 | COC(=O)c1ccc2c(c1)N(O)C(=O)CO2 [6-MeOCO-D-DIBOA] | 229 |  |  | 
9 | O=C1COc2c(ccc(F)c2F)N1O [7,8-diF-D-DIBOA] | 52 | 159 |  | 
10 | COc1ccc2c(c1OC)OCC(=O)N2O [7,8-diMeO-D-DIBOA] | 690 |  |  | 
11 | O=C1COc2cc(F)ccc2N1O [7-F-D-DIBOA] | 130 | 171 |  | 
12 | COC(=O)c1ccc2c(c1)OCC(=O)N2O [7-MeOCO-D-DIBOA] | 1640 |  |  | 
13 | O=C1COc2c(Cl)cccc2N1O [8-Cl-D-DIBOA] | 44 | 501 | 10 | 60
14 | O=C1COc2c(F)cccc2N1O [8-F-D-DIBOA] | 69 | 185 |  | 
15 | CCC(=O)Nc1ccc(Cl)c(Cl)c1 [PROPANIL] |  | 213 |  | 

Source: ChEMBL document CHEMBL3045267, “Aromatic-ring-functionalised benzoxazinones in the system Oryza sativa-Echinochloa crus-galli as biorational herbicide models” (Pest Manag Sci, 2009)
